Test results: patent publication US8012949B2, “Bisphosphonate compounds and methods with enhanced potency for multiple targets including FPPS, GGPPS, and DPPS” (The Board of Trustees of the University of Illinois, priority 2004, dated 2011)
Where two headings read alike, the source gives them in different places.

Experiments:
[1] = system: cancer cell growth (average); experiment: Inhibition of cancer cell growth (average); assay type: cell-based; conditions: Homo sapiens
Description: Compound 754 was synthesized and tested for activity.
Cell Growth Inhibition Assays. The human tumor cell lines MCF-7 (breast adenocarcinoma), NCI-H460 (lung large cell) and SF-268 (central nervous system glioblastoma) were obtained from the National Cancer Institute. All lines were cultured in RPMI-1640 medium supplemented with 10% fetal bovine serum and 2 mM L-glutamine at 37° C. in a 5% CO2 atmosphere with 100% humidity. A broth microdilution method was used to determine IC50 values for growth inhibition by each bisphosphonate. […] NBPs were typically initially dissolved in H2O (0.01 M) while NNBPs were typically dissolved in DMSO (0.01 M). Plates were then incubated for 4 days at 37° C. in a 5% CO2 atmosphere at 100% humidity after which an MTT ((3-(4,5-dimethylthiazole-2-yl)-2,5-diphenyltetrazolium bromide) cell proliferation assay (ATCC, Manassas, Va.) was used to obtain dose-response curves. The DMSO carrier had no effect on cell proliferation.

human FPPS = target: T1, human FPPS (Homo sapiens, UniProt P14324); experiment: human FPPS enzyme inhibition; assay type: biochemical
T1 construct: made in house
T1 sequence (P14324 1-419): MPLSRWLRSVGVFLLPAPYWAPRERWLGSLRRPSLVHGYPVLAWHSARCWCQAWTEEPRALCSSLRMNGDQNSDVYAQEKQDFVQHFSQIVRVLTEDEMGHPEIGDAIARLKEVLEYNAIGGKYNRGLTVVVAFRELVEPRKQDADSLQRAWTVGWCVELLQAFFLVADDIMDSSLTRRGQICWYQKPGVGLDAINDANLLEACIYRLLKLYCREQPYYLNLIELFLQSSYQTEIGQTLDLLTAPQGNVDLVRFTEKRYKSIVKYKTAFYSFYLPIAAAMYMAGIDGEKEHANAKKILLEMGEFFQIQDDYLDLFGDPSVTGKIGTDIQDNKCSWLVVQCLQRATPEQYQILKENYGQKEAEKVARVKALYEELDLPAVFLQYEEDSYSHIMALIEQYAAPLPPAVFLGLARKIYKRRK
Excerpt: (§1) To test our polypharmaceutical hypothesis, we expressed three enzymes: human FPPS, GGPPS and DPPS, and tested each for their inhibition by a series of bisphosphonates.

[2] = system: SF-268 (central nervous system glioblastoma); experiment: SF-268 cell growth inhibition (MTT); assay type: cell-based, human; conditions: Homo sapiens, SF-268
human DPPS = target: T2, human DPPS (Homo sapiens, UniProt Q5T2R2); experiment: human DPPS enzyme inhibition; assay type: biochemical
T2 construct: made in house
T2 sequence (Q5T2R2 1-415): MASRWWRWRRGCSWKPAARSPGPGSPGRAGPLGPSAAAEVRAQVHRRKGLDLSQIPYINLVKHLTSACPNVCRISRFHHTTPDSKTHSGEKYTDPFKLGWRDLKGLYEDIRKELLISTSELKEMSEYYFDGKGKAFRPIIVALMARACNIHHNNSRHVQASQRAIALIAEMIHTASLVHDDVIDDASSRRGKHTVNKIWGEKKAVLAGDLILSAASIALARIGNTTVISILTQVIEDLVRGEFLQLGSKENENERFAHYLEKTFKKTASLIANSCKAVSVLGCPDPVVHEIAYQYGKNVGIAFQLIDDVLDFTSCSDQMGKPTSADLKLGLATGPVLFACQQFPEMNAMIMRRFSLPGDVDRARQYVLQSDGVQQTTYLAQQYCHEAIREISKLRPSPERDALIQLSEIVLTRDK
T2 sequence (Q86YH6 1-399 partner): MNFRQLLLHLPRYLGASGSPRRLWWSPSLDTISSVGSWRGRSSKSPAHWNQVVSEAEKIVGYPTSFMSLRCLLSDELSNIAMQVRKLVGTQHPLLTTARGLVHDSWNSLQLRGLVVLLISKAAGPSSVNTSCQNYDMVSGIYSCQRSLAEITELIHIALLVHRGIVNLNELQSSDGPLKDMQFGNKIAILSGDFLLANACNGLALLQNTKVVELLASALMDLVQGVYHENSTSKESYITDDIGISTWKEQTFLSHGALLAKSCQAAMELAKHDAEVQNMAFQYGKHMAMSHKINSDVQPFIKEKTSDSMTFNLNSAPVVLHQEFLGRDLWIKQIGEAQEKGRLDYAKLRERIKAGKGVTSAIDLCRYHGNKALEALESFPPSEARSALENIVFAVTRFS
Excerpt: as §1

Vγ2Vδ2 T cells = experiment: γδ T cell activation (TNF-α release and proliferation); assay type: cell-based, human
Method in brief: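 Vγ2Vδ2 T cell clones (CD4+ JN.24, CD4+ HF.2, CD8αα+ 12G12, CD4−8− HD.108) stimulated with phosphoantigens plus 0.05% glutaraldehyde-fixed APCs: CP.EBV B cells for CD4+ clones, Va-2 fibroblasts for others. TNF-α release and proliferation measured; curve minima from global fitting per experiment, maxima fitted per compound unconstrained.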

[3] = system: NCI-H460 (lung large cell); experiment: NCI-H460 cell growth inhibition (MTT); assay type: cell-based, human; conditions: Homo sapiens, NCI-H460
[4] = system: MCF-7 (breast adenocarcinoma); experiment: MCF-7 cell growth inhibition (MTT), incl. FOH/GGOH rescue; assay type: cell-based, human; conditions: for IC50: Homo sapiens, MCF7

**Q.** `CCCCCCCCCCOc1cccc(CC(O)(P(=O)(O)O)P(=O)(O)O)c1` [BPH-754] was tested. Which IC50 [1] did it give?
**A.** 500 nM

**Q.** What about the “effect on FPPS” value (human FPPS) of the same compound?
**A.** essentially no effect

**Q.** And the Ki (human FPPS; Table 1, experimental, read-out: FPPS pKi (converted))?
**A.** 5010 nM

**Q.** What about the IC50 ([2]; Table 1, experimental, read-out: SF-268 pIC50 (converted)) of the same compound?
**A.** 25100 nM

**Q.** And the IC50 ([2]; read-out: IC50, inhibition of human CNS cancer SF268)?
**A.** 524 nM

**Q.** What about the “effect on DPPS” value (human DPPS) of the same compound?
**A.** essentially no effect

**Q.** And the Ki (human DPPS; Table 1, experimental, read-out: DPPS_pKi (converted))?
**A.** 200 nM

**Q.** And the “γδ T cell activation” value (Vγ2Vδ2 T cells)?
**A.** no effect

**Q.** What about the IC50 ([3]; Table 1, experimental, read-out: NCI-H460 pIC50 (converted)) of the same compound?
**A.** 20000 nM

**Q.** And the IC50 ([3]; read-out: IC50, inhibition of human lung cancer NCIH460)?
**A.** 672 nM

**Q.** And the “rescue from growth inhibition by geranylgeraniol (GGOH)” value ([4]; GGOH 20 μM)?
**A.** rescued by GGOH

**Q.** What about the IC50 ([4]; Table 1, experimental, read-out: MCF-7 pIC50 (converted)) of the same compound?
**A.** 25100 nM

**Q.** What about the IC50 ([4]; read-out: IC50, inhibition of human breast cancer cell line MCF7) of the same compound?
**A.** 401 nM
